Experimental data published in patent publication US7868013B2, “Cycloalkyl substituted pyrimidinediamine compounds and their uses” (Rigel Pharmaceuticals, Inc., priority 2004, dated 2011).
Counter-ions that a name gives are not always drawn. Like-named read-outs stand apart in the source and are kept apart here.

Tests used:
[1] = tested on: A549 (lung carcinoma); assay: In vitro antiproliferation assay, A549 cells (TABLE 1 6 point assay; TABLE 2); format: cell-based; conditions: Homo sapiens
Method: (§1) Certain compounds were tested against other cell types for their ability to inhibit proliferation in standard antiproliferation assays.

[2] = tested on: H1299 (non-small cell lung carcinoma); assay: In vitro antiproliferation assay, H1299 cells (TABLE 1 6 point assay; TABLE 2); format: cell-based
Method: as §1

[3] = A549, 6 point assay, A549 cells, read-out: IC50, A549 cells
[4] = Homo sapiens, NCI-H1299, 6 point assay, H1299 cells, read-out: IC50, H1299 cells
[5] = A549, A549 cells, 6 point assay, read-out: A549, 6pt (IC50, inhibition of proliferation)
[6] = Homo sapiens, NCI-H1299, H1299 cells, 6 point assay, read-out: H1299, 6pt (IC50, inhibition of proliferation)
[7] = H1299 cells, 6 point assay, read-out: H1299, 6pt (IC50, inhibition of proliferation)

`Cc1cc(Nc2ncc(F)c(NC3C4C=CC(C4)C3C(N)=O)n2)ccc1N1CC(C)OC(C)C1` (racemic) [Compound 284, Racemic-(2-exo,3-exo)-N4-(3-aminocarbonylbicyclo[2.2.1]hept-5-en-2-yl)-N2-[4-(2,6-dimethylmorpholino)-3-methylphenyl]-5-fluoro-2,4-pyrimidinediamine] gave an IC50 [1, 3] of no more than 100 nM and an IC50 [2, 4] of no more than 100 nM.

With `Cc1cc(Nc2ncc(F)c(NC3C4C=CC(C4)C3C(N)=O)n2)ccc1N1CC2CC1CC2C` (racemic) [Compound 285, Racemic-(2-exo,3-exo)-N4-(3-aminocarbonylbicyclo[2.2.1]hept-5-en-2-yl)-5-fluoro-N2-[3-methyl-4-(5-methyl-(1S,4S)-2,5-diazabicyclo[2.2.1]heptan-2-yl)]phenyl-2,4-pyrimidinediamine] the IC50 [1, 3] was no more than 100 nM and the IC50 [2, 4] was no more than 100 nM.

`Cc1cc(Nc2ncc(F)c(N[C@H]3C=CC[C@H]3C(N)=O)n2)ccc1N1CCN(C)CC1` (racemic) [Compound 286, Racemic-cis-N4-(2-aminocarbonylcyclopent-4-en-1-yl)-5-fluoro-N2-[3-methyl-4-(4-methylpiperazin-1-yl)phenyl]-2,4-pyrimidinediamine] was tested, and the IC50 [1, 3] was 100 to 1000 nM and the IC50 [2, 4] was 100 to 1000 nM.

`Cc1cc(Nc2ncc(F)c(N[C@H]3CCC[C@H]3C(N)=O)n2)ccc1N1CCCC1` (racemic) [Compound 287, Racemic-cis-N4-(2-aminocarbonylcyclopent-1-yl)-5-fluoro-N2-[3-methyl-4-(pyrrolidino)phenyl]-2,4-pyrimidinediamine] showed an IC50 [1, 3] of 1000 to 10000 nM and an IC50 [2, 4] of 1000 to 10000 nM.

`Cc1cc(Nc2ncc(F)c(NC3C4C=CC(C4)C3C(N)=O)n2)ccc1N1CCCC1` (racemic) [Compound 288, Racemic-(2-exo,3-exo)-N4-(3-aminocarbonylbicyclo[2.2.1]hept-5-en-2-yl)-5-fluoro-N2-[3-methyl-4-(pyrrolidino)phenyl]-2,4-pyrimidinediamine] was tested, and the IC50 [1, 3] was 100 to 1000 nM and the IC50 [2, 4] was 100 to 1000 nM.

`Cc1ccc(Nc2ncc(F)c(N[C@H]3CCC[C@H]3C(N)=O)n2)cc1OCC(=O)N1CCN(C)CC1` (racemic) [compound 102, Racemic-cis-N4-(2-aminocarbonylcyclopent-1-yl)-5-fluoro-N2-[4-methyl-3-(4-methylpiperazin-1-yl)carbonylmethyleneoxyphenyl]-2,4-pyrimidinediamine] gave an IC50 [1, 5] of 1000 to 10000 nM and an IC50 [2, 6] of 1000 to 10000 nM.

`Cc1ccc(Nc2ncc(F)c(NC3C4C=CC(C4)C3C(N)=O)n2)cc1OCC(=O)N1CCOCC1` (racemic) [compound 103, Racemic-(2-exo, 3-exo)-N4-(3-aminocarbonylbicyclo[2.2.1]hept-5-en-2-yl)-5-fluoro-N2-[4-methyl-3-(N-morpholinyl)carbonylmethyleneoxyphenyl]-2,4-pyrimidinediamine] was tested, and the IC50 [1, 5] was 100 to 1000 nM and the IC50 [2, 6] was no more than 100 nM.

With `Cc1ccc(Nc2ncc(F)c(NC3C4C=CC(C4)C3C(N)=O)n2)cc1OCCN1CCOCC1` (racemic) [compound 104, Racemic-(2-exo, 3-exo)-N4-(3-aminocarbonylbicyclo[2.2.1]hept-5-en-2-yl)-5-fluoro-N2-[4-methyl-3-(N-morpholinyl)-2-ethyleneoxyphenyl]-2,4-pyrimidinediamine] the IC50 [1, 5] was no more than 100 nM and the IC50 [2, 6] was no more than 100 nM.

For `CNC(=O)COc1cc(Nc2ncc(F)c(N[C@H]3CCC[C@H]3C(N)=O)n2)ccc1C` (racemic) [compound 106, Racemic-cis-N4-(2-aminocarbonylcyclopent-1-yl)-5-fluoro-N2-[4-methyl-3-(N-methylamino)carbonylmethyleneoxyphenyl]-2,4-pyrimidinediamine], the IC50 [1, 5] was 1000 to 10000 nM and the IC50 [2, 6] was 1000 to 10000 nM.

In the case of `Cc1cc(Nc2ncc(F)c(N[C@H]3CCC[C@H]3C(N)=O)n2)ccc1N1CCNCC1` (racemic) [compound 107, Racemic-cis-N4-(2-amino-carbonylcyclopent-1-yl)-5-fluoro-N2-[3-methyl-4-(piperazin-1-yl)phenyl]-2,4-pyrimidinediamine], the IC50 [1, 5] is reported as 1000 to 10000 nM and the IC50 [2, 6] is reported as 1000 to 10000 nM.

Work on `Cc1cc(Nc2ncc(F)c(NC3C4C=CC(C4)C3C(N)=O)n2)ccc1N1CCNCC1` (racemic) [compound 108] yielded an IC50 [1, 5] greater than 10000 nM and an IC50 [2, 6] of 1000 to 10000 nM.

`Cc1cc(Nc2ncc(F)c(NC3C4C=CC(C4)C3C(N)=O)n2)ccc1N1CCN(CCO)CC1` (racemic) [compound 111] gave an IC50 [1, 5] of no more than 100 nM and an IC50 [2, 6] of no more than 100 nM.

`CN1CCN(C(=O)c2cc3cc(Nc4ncc(F)c(N[C@H]5CCC[C@H]5C(N)=O)n4)ccc3o2)CC1` (racemic) [compound 130, Racemic-cis-N4-(2-aminocarbonylcyclopent-1-yl)-5-fluoro-N2-[2-(4-methylpiperazin-1-ylcarbonyl)benzofuran-5-yl]-2,4-pyrimidinediamine] was tested, and the IC50 [1, 5] was 1000 to 10000 nM and the IC50 [2, 6] was 1000 to 10000 nM.

Work on `Cc1cc(Nc2ncc(F)c(N[C@H]3[C@@H](C(N)=O)[C@@H]4C=C[C@H]3C4)n2)ccc1N1CCN(C)CC1` [compound 139, (1R,2R,3S,4S)-N4-(3-Aminocarbonylbicyclo[2.2.1]hept-5-en-2-yl)-5-fluoro-N2-[3-methyl-4-(4-methylpiperazin-1-yl)phenyl]-2,4-pyrimidinediamine Trifluoroacetic Acid Salt] yielded an IC50 [2, 7] of no more than 100 nM.

Molecule `Cc1cc(Nc2ncc(F)c(N[C@H]3[C@@H](C(N)=O)[C@@H]4C=C[C@H]3C4)n2)ccc1N1CCN(C)CC1` [compound 140, (1R,2R,3S,4S)-N4-(3-Aminocarbonylbicyclo[2.2.1]hept-5-en-2-yl)-5-fluoro-N2-[3-methyl-4-(4-methylpiperazin-1-yl)phenyl]-2,4-pyrimidinediamine Methanesulfonic Acid Salt] has an IC50 [2, 7] of no more than 100 nM.

`Cc1cc(Nc2ncc(F)c(N[C@H]3[C@@H](C(N)=O)[C@@H]4C=C[C@H]3C4)n2)ccc1N1CCN(C)CC1` [compound 141, (1R,2R,3S,4S)-N4-(3-Aminocarbonylbicyclo[2.2.1]hept-5-en-2-yl)-5-fluoro-N2-[3-methyl-4-(4-methylpiperazin-1-yl)phenyl]-2,4-pyrimidinediamine Nitric Acid Salt] showed an IC50 [2, 6] of no more than 100 nM.

In the case of `Cc1cc(Nc2ncc(F)c(N[C@H]3[C@@H](C(N)=O)[C@@H]4C=C[C@H]3C4)n2)ccc1N1CCN(C)CC1` [compound 142, (1R,2R,3S,4S)-N4-(3-Aminocarbonylbicyclo[2.2.1]hept-5-en-2-yl)-5-fluoro-N2-[3-methyl-4-(4-methylpiperazin-1-yl)phenyl]-2,4-pyrimidinediamine Sulfuric Acid Salt], the IC50 [2, 7] is reported as no more than 100 nM.

Work on `Cc1cc(Nc2ncc(F)c(N[C@H]3[C@@H](C(N)=O)[C@@H]4C=C[C@H]3C4)n2)ccc1N1CCN(C)CC1` [compound 143, (1R,2R,3S,4S)-N4-(3-Aminocarbonylbicyclo[2.2.1]hept-5-en-2-yl)-5-fluoro-N2-[3-methyl-4-(4-methylpiperazin-1-yl)phenyl]-2,4-pyrimidinediamine (S)- Mandelic Acid Salt] yielded an IC50 [2, 7] of no more than 100 nM.

With `Cc1cc(Nc2ncc(F)c(N[C@H]3[C@@H](C(N)=O)[C@@H]4C=C[C@H]3C4)n2)ccc1N1CCN(C)CC1` [compound 144, (1R,2R,3S,4S)-N4-(3-Aminocarbonylbicyclo[2.2.1]hept-5-en-2-yl)-5-fluoro-N2-[3-methyl-4-(4-methylpiperazin-1-yl)phenyl]-2,4-pyrimidinediamine p- Toluenesulfonic Acid Salt] the IC50 [2, 7] was no more than 100 nM.
